Results reported in article PMC9457259 (Proceedings of the National Academy of Sciences of the …, 2022).

Target: human voltage-gated proton channel hHv1 (Homo sapiens, UniProt Q96D96)
Experiment: liposome proton flux assay
Format: biochemical

human voltage-gated proton channel hHv1, sequence (Q96D96 whole entry): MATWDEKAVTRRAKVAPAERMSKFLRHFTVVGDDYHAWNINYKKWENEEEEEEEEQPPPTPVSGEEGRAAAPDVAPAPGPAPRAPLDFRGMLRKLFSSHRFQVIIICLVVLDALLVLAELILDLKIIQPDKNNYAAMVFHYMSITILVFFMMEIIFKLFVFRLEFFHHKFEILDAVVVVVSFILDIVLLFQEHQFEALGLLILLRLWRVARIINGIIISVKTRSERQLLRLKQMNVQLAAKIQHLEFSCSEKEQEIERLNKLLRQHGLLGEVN

IC50: ~ 10 % (wt/wt, to total membrane lipids)
Structure (SMILES): CC(C)CCC[C@@H](C)[C@H]1CC[C@H]2[C@@H]3CC=C4C[C@@H](O)CC[C@]4(C)[C@H]3CC[C@]12C [cholesterol]
